In article PMC12067350, “Discovery of Thieno[3,2‑b]pyridine-5-carboxamide and 2,3-Difluorobenzamide Negative Allosteric Modulators of Metabotropic Glutamate Receptor Subtype 5” (ACS Medicinal Chemistry Letters, 2025):

Columns and labels:
Format in all cases: in vitro ADME
[1] = Binding in plasma from human (equilibrium dialysis); details: fraction unbound
Procedure: Binding in plasma from rat and human.
Determination of compounds’ fraction unbound (f u) in plasma from rat and human was conducted in vitro via equilibrium dialysis using HTDialysis membrane plates. Dialysis membranes (four paired strips per HTD assay) were hydrated as described by the manufacturer and inserted into the HTD plate, which was assembled and prepared for sample addition by the dispensing of blank buffer (DPBS, 100 µL/well) into the ‘top half’ of each membrane-split well. Each compound was diluted into plasma from each species (5 µM final concentration), which was aliquoted in triplicate to the ‘bottom half’ of the prepared HTD plate wells. The HTD plate was sealed and incubated for 6 hours at 37 °C. Following incubation, each well (both top and bottom halves) were transferred (20 µL) to the corresponding wells of a 96-shallow-well (V-bottom) plate. The daughter plates were then matrix-matched (buffer side wells received equal volume of plasma, and plasma side wells received equal volume of buffer), and extraction solution (120 µL; acetonitrile containing 50 nM carbamazepine as IS) was added to all wells of both daughter plates to precipitate protein and extract test article. The plates were then sealed and centrifuged (3500 rcf) for 10 minutes at ambient temperature. Supernatant (60 µL) from each well of the daughter plates was then transferred to the corresponding wells of new daughter plates (96-shallow-well, V bottom) containing water (Milli-Q, 60 µL/well), and the plates were sealed in preparation for LC-MS/MS analysis (see below). fu was calculated as (analyte to IS MS peak area ratio from Trans-buffer side) / (analyte to IS MS peak area ratio from Cis-plasma side). Mean values for each species were calculated from 3 replicates. […]
Mean values for each species were calculated from 3 replicates.

[2] = biological target: T1, CYP1A2 (Homo sapiens, UniProt P05177); assay: Cytochrome P450 inhibition using human liver microsomes, CYP1A2; details: read-out: CYP 450 IC50, 1A2
T1 construct: from tissue; host or cells: human liver microsomes
T1 sequence (P05177 1-516): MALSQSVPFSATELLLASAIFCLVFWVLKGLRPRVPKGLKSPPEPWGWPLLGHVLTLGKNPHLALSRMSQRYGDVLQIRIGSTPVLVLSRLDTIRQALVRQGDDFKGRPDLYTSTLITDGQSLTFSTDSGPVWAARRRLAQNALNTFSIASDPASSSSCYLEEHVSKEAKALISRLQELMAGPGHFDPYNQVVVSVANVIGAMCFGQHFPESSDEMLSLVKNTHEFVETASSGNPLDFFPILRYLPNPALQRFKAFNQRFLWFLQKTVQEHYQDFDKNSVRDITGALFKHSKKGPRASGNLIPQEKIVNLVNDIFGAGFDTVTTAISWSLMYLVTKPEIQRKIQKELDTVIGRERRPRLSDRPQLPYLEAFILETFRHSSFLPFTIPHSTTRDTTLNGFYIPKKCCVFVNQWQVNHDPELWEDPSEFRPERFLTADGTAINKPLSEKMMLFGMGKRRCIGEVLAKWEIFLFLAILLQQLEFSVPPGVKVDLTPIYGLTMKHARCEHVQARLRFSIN
Procedure: (§1) Cytochrome P450 inhibition using Liver Microsomes.
(§2) The ability of compounds to inhibit cytochrome P450s (CYPs) was tested using human liver microsomes and a cocktail of substrates specific for CYP1A2, 2C9, 2D6 and 3A4. Compounds were incubated at 37C in presence of human liver microsomes (0.1 mg/ml) at 30, 10, 3, 1, 0.3 and 0.1 µM. A cocktail of substrate was also added for each CYP tested: phenacetin (10 µM, CYP1A2), diclofenac (5 µM, CYP2C9), dextromethorphan (5 µM, CYP2D6) and midazolam (2 µM, CYP3A4). HLM were also incubated with the control inhibitor miconazole at 3, 1, 0.3, 0.1, 0.03 and 0.01 µM. […]
(§3) The concentrations of CYP-specific metabolites generated at the end of the reaction were quantified by mass spectrometry using standard curves for each metabolite: acetaminophen (CYP1A2), 4-hydroxydiclofenac (CYP2C9), dextrophan (CYP2D6) and 1-hydroxymidazolam (CYP3A4). A concentration response curve for each metabolite was generated and IC50s were calculated using Prism. The LC-MS/MS transitions for metabolite quantifications are as follows. […]
(§4) Prepared samples were injected (10 µL each) onto an AB Sciex Triple Quad 4500 mass spectrometer system with an Agilent 1260 Infinity II pump and autosampler. […] Quantitation of compounds was performed via AB Sciex Multiquant software using the raw analyte:IS peak area ratios. […]

[3] = biological target: T2, CYP3A4 (Homo sapiens, UniProt P08684); assay: Cytochrome P450 inhibition using human liver microsomes, CYP3A4; details: read-out: CYP 450 IC50, 3A4
T2 construct: from tissue; host or cells: human liver microsomes
T2 sequence (P08684 whole entry): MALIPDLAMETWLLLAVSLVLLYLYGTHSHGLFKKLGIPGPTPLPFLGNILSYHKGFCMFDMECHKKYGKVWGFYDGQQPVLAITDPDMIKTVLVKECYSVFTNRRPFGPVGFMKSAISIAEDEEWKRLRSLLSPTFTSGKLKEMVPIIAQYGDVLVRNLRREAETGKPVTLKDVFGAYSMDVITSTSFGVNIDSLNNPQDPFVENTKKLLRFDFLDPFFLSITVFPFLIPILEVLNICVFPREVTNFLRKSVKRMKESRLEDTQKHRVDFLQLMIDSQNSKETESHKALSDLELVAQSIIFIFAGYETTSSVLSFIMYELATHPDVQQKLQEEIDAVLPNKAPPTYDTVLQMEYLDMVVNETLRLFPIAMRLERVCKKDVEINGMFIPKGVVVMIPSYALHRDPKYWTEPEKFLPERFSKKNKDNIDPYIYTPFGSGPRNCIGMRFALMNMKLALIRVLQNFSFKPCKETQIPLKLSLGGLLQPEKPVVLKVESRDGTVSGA
Procedure: as §1, §2, §3, §4

Row | Structure (SMILES) | human f u,plasma [1] | IC50 [2] | IC50 [3]
1 | Cc1csc(NC(=O)c2cc(O[C@@H]3CCOC3)c3sccc3n2)n1 [19aA] | 0.020 | 1200 nM | > 30 µM
2 | Cc1csc(NC(=O)c2cc(O[C@@H]3CCOC3)cc(F)c2F)n1 [27cA] | 0.069 | 1300 nM | > 30 µM
